Measurements: patent US11202766B1, “Pharmaceutical compositions including hydrocodone bitartrate and guaifenesin” (priority 2019, dated 2021)

Assay: clinical
Conditions: for Tmax / half-life: Mean; for Kel of Hydrocodone bitartrate, Mean: oral; for half-life: t1/2 of Hydrocodone bitartrate
Description: A randomized, open-label, balanced, two-treatment, two-period, two sequence, single-dose, two-way crossover oral food effect study was conducted comparing administration of rapidly dissolving pharmaceutical composition tablets including 5 mg hydrocodone bitartrate and 400 mg guaifenesin per tablet to healthy subjects under fed and fasting conditions. The objective of this study was to evaluate the effect of food (high fat, high calorie breakfast) on the rate and extent of absorption of a single oral dose of the rapidly dissolving pharmaceutical composition including 5 mg hydrocodone bitartrate and 400 mg guaifenesin.
Healthy adult participants were randomized into Treatment A or Treatment B during two study periods (Period 1 and Period 2). Participants received one tablet of the rapidly dissolving pharmaceutical composition (including 5 mg hydrocodone bitartrate and 400 mg guaifenesin per tablet) in each study period with a seven-day (washout) interval between study periods. Participants randomized to Treatment A consumed a high fat, high calorie breakfast (1000 kcal) 30 minutes prior to dosing. Participants randomized to Treatment B fasted overnight and at the time of dosing. Participants were housed at the investigative site not less than 10.5 hours pre-dose until 24 hours post-dose in each period.
Twenty-one blood samples were collected from each subject during each study period. The venous blood samples (9 mL each) were drawn at pre-dose [(0.00) within 1.00 hour prior to dosing] and at 0.16, 0.33, 0.50, 0.66, 0.83, 1.00, 1.25, 1.50, 2.00, 3.00, 4.00, 5.00, 6.00, 7.00, 8.00, 10.00, 12.00, 16.00, 20.00 and 24.00 hours post-dose. After the collection of blood samples from all the subjects at each time point, samples were centrifuged at 4000 RPM for 10 minutes at 5° C. All plasma samples were then transferred into three polypropylene tubes. The plasma samples were stored at −20±10° C. for a maximum period of 12.0 hours.
Pharmacokinetic parameters were measured for fed and fasting conditions of subjects for both hydrocodone bitartrate and guaifenesin. Plasma samples were assayed for hydrocodone and guaifenesin using an API 4000® LC-MS/MS System, commercially available from AB Sciex LP, Concord, Ontario, Canada. During analysis, standard and quality control samples were distributed throughout each batch of study samples analyzed. No access to the randomization schedule was available until all of the analysis was completed. All the values below the limit of quantification (LOQ) were set to “zero” for all pharmacokinetic and statistical calculations. Any missing sample was reported as “M”. Incurred sample reanalysis was performed as per the current version of ICON SOP BC06, “Incurred Sample Reanalysis Procedures”.
The pharmacokinetic parameters for hydrocodone and guaifenesin in plasma were computed using SAS™ v9.3 software, commercially available from SAS Institute, Inc., Cary, N.C., USA.
The plasma pharmacokinetic parameters were determined for Cmax, Tmax, AUC0→t, and AUC0→∞. The Cmax and Tmax values were directly determined from the plasma concentration versus time curves. The AUC0→t was calculated by the linear trapezoidal rule. The AUC0→∞ was estimated by summing the area from AUC0→t and […]. The half life, t1/2, was calculated using the formula t1/2=ln 2/Kel, wherein Kel is the slope of the terminal portion of the plasma concentration versus time curve, obtained by linear regression. Natural Logarithmic transformation was done before data analysis for Cmax, AUC0→t, and AUC0→∞. Tmax, t1/2, and Kel were analyzed without transformation.
A paired t-test was used to assess effects between the two arms of the study. Intra-subject variability in terms of the overall percentage coefficient of variation (% CV) were also evaluated for each PK parameter. […] All values below the limit of quantification (LOQ) were set to “zero” for all pharmacokinetic and statistical calculations.

[1] = fed:fasting, ln-transformed data

Row | Compound | t1/2 of Guaifenesin, Mean (human, in vivo, po) [h] | Tmax (human, in vivo, po, Tmax of Guaifenesin) [h] | Kel of Hydrocodone bitartrate, Mean (Fasting Condition (Treatment B), one tablet 5 mg hydrocodone bitartrate/400 mg guaifenesin) [h⁻¹] | Kel of Hydrocodone bitartrate, Mean (Fed Condition (Treatment A), one tablet 5 mg hydrocodone bitartrate/400 mg guaifenesin) [h⁻¹] | Ratio Between Treatment A: Treatment B, Kel of Hydrocodone Bitartrate, Mean (fed:fasting) | Ratio Between Treatment A: Treatment B, Tmax of Hydrocodone Bitartrate, Mean (fed:fasting) | Ratio Between Treatment A: Treatment B, t1/2 of Hydrocodone Bitartrate, Mean (fed:fasting) | Ratio Between Treatment A: Treatment B, *AUC0→t of Hydrocodone Bitartrate, Mean [1] | Ratio Between Treatment A: Treatment B, *AUC0→∞ of Hydrocodone Bitartrate, Mean [1] | Ratio Between Treatment A: Treatment B, *Cmax of Hydrocodone Bitartrate, Mean [1] | Tmax (human, in vivo, po, Tmax of Hydrocodone bitartrate, Fasting Condition (Treatment B), one tablet 5 mg hydrocodone bitartrate/400 mg guaifenesin) [h] | Tmax (human, in vivo, po, Tmax of Hydrocodone bitartrate, Fed Condition (Treatment A), one tablet 5 mg hydrocodone bitartrate/400 mg guaifenesin) [h] | half-life (human, in vivo, po, Fasting Condition (Treatment B), one tablet 5 mg hydrocodone bitartrate/400 mg guaifenesin) [h] | half-life (human, in vivo, po, Fed Condition (Treatment A), one tablet 5 mg hydrocodone bitartrate/400 mg guaifenesin) [h]
1 | COc1ccccc1OCC(O)CO (centres unmarked) [Guaifenesin, guaifenesin] | 1.05 | 0.64 | – | – | – | – | – | – | – | – | – | – | – | –
2 | COc1ccc2c3c1O[C@H]1C(=O)CC[C@H]4[C@@H](C2)N(C)CC[C@]314.O=C(O)C(O)C(O)C(=O)O [Hydrocodone bitartrate, hydrocodone bitartrate] | – | – | 0.14 | 0.14 | 0.98 | 1.51 | 1.11 | 1.02 | 1.02 | 1.03 | 1.61 | 2.08 | 4.95 | 5.29
